From ChEMBL document CHEMBL4138094, “Discorhabdin alkaloids from Antarctic Latrunculia spp. sponges as a new class of cholinesterase inhibitors” (Eur J Med Chem, 2017) come the findings set out here.

The target of data set [1] is T1, Cholinesterase (Equus caballus, UniProt P81908). Nature of the data set: (§1) Reversible competitive inhibition of equine serum BChE using acetylthiocholine iodide as substrate measured over 5 mins by Ellman's method. In general terms: In Ellman's method for cholinesterases, released thiocholine reacts with DTNB.
Data set [2] has as its target T2, Acetylcholinesterase (Homo sapiens, UniProt P22303). Nature of the data set: Inhibition of human AChE using acetylthiocholine iodide as substrate measured over 5 mins by Ellman's method.
Data set [3] deals with T3, Acetylcholinesterase (Electrophorus electricus, UniProt O42275). Nature of the data set: (§2) Inhibition of electric eel AChE using acetylthiocholine iodide as substrate measured over 5 mins by Ellman's method.
The target in data set [4] is T2, Acetylcholinesterase. Nature of the data set: Reversible competitive inhibition of human AChE using acetylthiocholine iodide as substrate measured over 5 mins by Dixon plot analysis.
Data set [5] addresses T3, Acetylcholinesterase. Nature of the data set: Reversible competitive inhibition of electric eel AChE using acetylthiocholine iodide as substrate measured over 5 mins by Dixon plot analysis.
Data set [6] deals with Cholinesterase (Equus caballus) (UniProt P81908). The description is as §1.
For data set [7], the target named is Acetylcholinesterase (Electrophorus electricus) (UniProt O42275). Described as §2.
Data set [8] concerns the target T1, Cholinesterase. Description: Inhibition of equine serum BChE using acetylthiocholine iodide as substrate measured over 5 mins by Dixon plot analysis.
Data set [9] can be described thus: Toxicity in Balb/c mouse hemidiaphragm assessed as effect on amplitude of endplate potentials after 30 to 60 mins mins in presence of conotoxin GIIIB. It counts as tissue-based, Diaphragm.
Data set [10] in a line: Toxicity in Balb/c mouse hemidiaphragm assessed as effect on amplitude of directly evoked tetanic muscle contractions at 8.43 uM after 60 mins. It counts as tissue-based, Diaphragm. The settings on record: 1 h.
Data set [11] can be described thus: Toxicity in Balb/c mouse hemidiaphragm assessed as effect on directly evoked muscle twitch amplitudes at 8.43 uM after 60 mins. It counts as tissue-based, Diaphragm. The conditions noted are these: 1 h.
Data set [12] can be described thus: Toxicity in Balb/c mouse hemidiaphragm assessed as effect on amplitude of indirectly evoked tetanic muscle contractions at 8.43 uM after 60 mins. It counts as tissue-based, Diaphragm. The settings on record: 1 h.
Data set [13] can be described thus: Toxicity in Balb/c mouse hemidiaphragm assessed as effect on endplate potentials half decay after 30 to 60 mins mins in presence of conotoxin GIIIB. It counts as tissue-based, Diaphragm.
A short description of data set [14]: Toxicity in Balb/c mouse hemidiaphragm assessed as effect on indirectly evoked muscle twitch amplitudes at 8.43 uM after 60 mins. The class given is tissue-based, Diaphragm. The settings on record: 1 h.
Data set [15] deals with Acetylcholinesterase (Electrophorus electricus) (UniProt O42275). Description: Inhibition of electric eel AChE using acetylthiocholine iodide as substrate at 8.43 uM measured over 5 mins by Ellman's method relative to control.
The target of data set [16] is Cholinesterase (Equus caballus) (UniProt P81908). The settings on record: 1 mM.
Description: Inhibition of equine serum BChE at 1 mM

Chain of Acetylcholinesterase (Electrophorus electricus) (O42275 24-633 limits assumed): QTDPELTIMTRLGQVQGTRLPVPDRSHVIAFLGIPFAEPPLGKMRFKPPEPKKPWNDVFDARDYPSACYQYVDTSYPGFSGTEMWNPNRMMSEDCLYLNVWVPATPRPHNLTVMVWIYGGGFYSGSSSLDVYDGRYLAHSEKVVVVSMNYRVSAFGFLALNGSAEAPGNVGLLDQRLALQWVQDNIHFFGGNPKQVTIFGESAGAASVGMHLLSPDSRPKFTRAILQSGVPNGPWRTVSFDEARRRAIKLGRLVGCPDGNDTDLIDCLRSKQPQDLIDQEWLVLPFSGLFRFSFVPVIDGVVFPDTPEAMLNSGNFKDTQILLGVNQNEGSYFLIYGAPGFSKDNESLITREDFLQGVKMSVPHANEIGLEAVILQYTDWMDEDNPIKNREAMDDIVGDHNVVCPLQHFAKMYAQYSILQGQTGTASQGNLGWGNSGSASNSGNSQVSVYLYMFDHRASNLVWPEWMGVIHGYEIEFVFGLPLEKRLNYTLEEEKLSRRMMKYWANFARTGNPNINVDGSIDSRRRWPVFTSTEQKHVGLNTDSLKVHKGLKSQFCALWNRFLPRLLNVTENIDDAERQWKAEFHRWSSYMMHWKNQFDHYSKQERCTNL
Chain of Cholinesterase (Equus caballus) (P81908 whole entry): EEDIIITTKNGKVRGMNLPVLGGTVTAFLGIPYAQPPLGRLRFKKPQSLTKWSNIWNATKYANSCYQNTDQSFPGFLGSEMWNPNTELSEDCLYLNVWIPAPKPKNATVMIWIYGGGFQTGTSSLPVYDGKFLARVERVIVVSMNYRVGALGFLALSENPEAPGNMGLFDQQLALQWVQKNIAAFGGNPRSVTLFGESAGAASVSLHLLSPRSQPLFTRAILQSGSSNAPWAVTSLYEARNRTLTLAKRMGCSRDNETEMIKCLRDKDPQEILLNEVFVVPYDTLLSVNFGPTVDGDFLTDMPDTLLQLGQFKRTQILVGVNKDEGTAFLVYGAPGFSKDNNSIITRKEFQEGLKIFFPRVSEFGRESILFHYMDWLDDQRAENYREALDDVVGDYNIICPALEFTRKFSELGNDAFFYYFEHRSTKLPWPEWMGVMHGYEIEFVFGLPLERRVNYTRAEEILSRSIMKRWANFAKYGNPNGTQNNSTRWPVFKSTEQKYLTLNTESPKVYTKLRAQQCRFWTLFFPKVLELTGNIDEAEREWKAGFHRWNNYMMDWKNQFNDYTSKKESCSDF
T1 sequence (P81908 whole entry): as above
T2 sequence (P22303 whole entry): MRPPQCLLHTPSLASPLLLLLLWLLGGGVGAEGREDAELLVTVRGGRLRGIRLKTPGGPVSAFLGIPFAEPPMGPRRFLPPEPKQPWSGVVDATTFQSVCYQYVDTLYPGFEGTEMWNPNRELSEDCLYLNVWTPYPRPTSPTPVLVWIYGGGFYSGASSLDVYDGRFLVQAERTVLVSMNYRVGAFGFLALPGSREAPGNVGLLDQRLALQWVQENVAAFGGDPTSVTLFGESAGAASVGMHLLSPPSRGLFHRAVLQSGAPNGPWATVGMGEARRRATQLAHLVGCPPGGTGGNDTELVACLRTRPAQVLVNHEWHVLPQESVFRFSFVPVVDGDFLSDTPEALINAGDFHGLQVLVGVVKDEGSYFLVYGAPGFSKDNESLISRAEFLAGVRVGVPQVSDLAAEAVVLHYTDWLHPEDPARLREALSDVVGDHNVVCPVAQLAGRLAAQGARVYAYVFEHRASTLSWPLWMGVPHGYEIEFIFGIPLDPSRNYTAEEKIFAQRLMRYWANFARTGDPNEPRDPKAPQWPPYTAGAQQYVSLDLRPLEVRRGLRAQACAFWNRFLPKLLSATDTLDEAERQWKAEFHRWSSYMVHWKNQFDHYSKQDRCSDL
T3 sequence (O42275 whole entry): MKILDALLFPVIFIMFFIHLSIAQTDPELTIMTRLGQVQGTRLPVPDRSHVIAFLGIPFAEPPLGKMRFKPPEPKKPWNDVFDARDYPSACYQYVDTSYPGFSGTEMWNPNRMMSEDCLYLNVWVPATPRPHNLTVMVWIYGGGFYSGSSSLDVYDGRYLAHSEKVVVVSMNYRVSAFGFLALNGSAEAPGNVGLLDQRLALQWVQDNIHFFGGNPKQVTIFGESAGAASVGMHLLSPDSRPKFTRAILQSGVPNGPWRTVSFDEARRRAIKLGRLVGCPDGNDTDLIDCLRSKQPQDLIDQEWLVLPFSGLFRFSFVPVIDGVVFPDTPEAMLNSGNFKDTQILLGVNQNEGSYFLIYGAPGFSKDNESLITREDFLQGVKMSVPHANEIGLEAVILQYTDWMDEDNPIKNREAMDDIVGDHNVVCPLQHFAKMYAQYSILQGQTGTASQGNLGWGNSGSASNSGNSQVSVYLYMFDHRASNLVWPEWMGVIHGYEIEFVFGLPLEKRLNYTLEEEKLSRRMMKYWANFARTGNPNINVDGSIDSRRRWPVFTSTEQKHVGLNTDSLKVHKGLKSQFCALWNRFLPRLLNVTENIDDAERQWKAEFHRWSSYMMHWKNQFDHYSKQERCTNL

As for `CNC(=O)Oc1ccc2c(c1)[C@]1(C)CCN[C@@H]1N2`, the IC50 – broadly, the concentration needed to halve the response being measured – was found to be 28.5 µM at Cholinesterase [1], 14.5 µM on Acetylcholinesterase [2] and 3 µM on Acetylcholinesterase [3].

With `O=C1C=C2S[C@H]3C[C@]2(C=C1Br)C1=C(N3)C(=O)c2[nH]cc3c2C1=NCC3` [DISCORHABDIN B], the Ki (in general, the equilibrium dissociation constant of an inhibitor or competing ligand from its target) at Acetylcholinesterase [4] was found to be 22.8 µM; on Acetylcholinesterase [5], 1.9 µM; at Cholinesterase [8], 76 µM. The IC50 at Cholinesterase [1] stood at 137 µM; on Acetylcholinesterase [2], 49.4 µM; on Acetylcholinesterase [3], 5.7 µM. Besides, the inhibition result (in data set [6]; on Acetylcholinesterase [2]; in data set [7]) was “Dose-dependent effect” each time.

On Acetylcholinesterase [5], `O=C1C2=C3C4=[N+](CCc5c[nH]c1c54)[C@@H]1C(=O)C=C4S[C@@H](C[C@@]43[C@H]1O)N2` [DISCORHABDIN L] yielded a Ki of 15 µM. The IC50 on Cholinesterase [1] was determined as 531 µM; against Acetylcholinesterase [2], 158 µM; against Acetylcholinesterase [3], 25.7 µM. In addition, the inhibition entry (in data set [6]; at Acetylcholinesterase [2]; in data set [7]) was “Dose-dependent effect” in each case.

Take `O=C(O)C(F)(F)F.O=C1CC[C@@]2(C=CNC3=C2C2=NCCc4c[nH]c(c42)C3=O)C=C1Br`: the Activity entry in [9], in data set [10], in [11], in [12], in [13] and in data set [14] was “Non-Toxic” each time. For the same molecule, the Ki is 56.2 µM at Acetylcholinesterase [4], 1.6 µM at Acetylcholinesterase [5] and 5 µM at Cholinesterase [8]. The IC50 on Cholinesterase [1] was determined as 7 µM; against Acetylcholinesterase [2], 116 µM; at Acetylcholinesterase [3], 1.3 µM. Besides, the inhibition – broadly, the share of the control response that was lost under treatment – in [6] was “Dose-dependent effect”; on Acetylcholinesterase [2], “Dose-dependent effect”; in data set [7], “Dose-dependent effect”; in data set [15] it was 80%.

For the molecule `COc1ccc2c3c1O[C@H]1C[C@@H](O)C=C[C@@]31CCN(C)C2`, the inhibition in [16] was determined as 80.3%.

Take `O=C1C2=C(C3=NCCc4c[nH]c1c43)C1(C=CN2)C=C(Br)C(O)C(Br)=C1` (stereo not given): the Ki on Acetylcholinesterase [4] was found to be 98 µM; at Acetylcholinesterase [5] it was 3.5 µM; at Cholinesterase [8] it was 17.5 µM. The figures for the IC50 on Cholinesterase [1], at Acetylcholinesterase [2] and against Acetylcholinesterase [3] were 15.8 µM, 152 µM and 14.5 µM, respectively. Besides, the inhibition result (in data set [6]; at Acetylcholinesterase [2]; in data set [7]) was “Dose-dependent effect” each time.
